Data as given in the NIST ThermoML archive (doi:10.1021/je700546r).
Where “and” joins values, the source holds several entries; their conditions need not be identical. Equal entries are not always repeated.

Assay: molar heat capacity at saturation pressure
Details: Small (less than 1 g) adiabatic calorimetry

ON=C1CCCCC1 [cyclohexanone oxime]
Details | molar heat capacity
224.01 K, Crystal 3 | 136.62 J/K/mol
224.62 K, Crystal 3 | 137.24 J/K/mol
224.76 K, Crystal 3 | 137.52 J/K/mol
225.92 K, Crystal 3 | 138.42 J/K/mol
226.48 K, Crystal 3 | 138.92 J/K/mol
226.5 K, Crystal 3 | 139.12 J/K/mol
227.85 K, Crystal 3 | 140.09 J/K/mol
228.24 K, Crystal 3 | 140.6 J/K/mol
228.33 K, Crystal 3 | 140.45 J/K/mol
229.78 K, Crystal 3 | 141.6 J/K/mol
229.98 K, Crystal 3 | 141.91 J/K/mol
230.18 K, Crystal 3 | 141.86 J/K/mol
231.71 K, Crystal 3 | 143.03 J/K/mol and 143.15 J/K/mol
232.03 K, Crystal 3 | 143.15 J/K/mol
233.43 K, Crystal 3 | 144.26 J/K/mol
233.64 K, Crystal 3 | 144.32 J/K/mol
233.87 K, Crystal 3 | 144.33 J/K/mol
235.14 K, Crystal 3 | 145.41 J/K/mol
235.57 K, Crystal 3 | 145.51 J/K/mol
235.71 K, Crystal 3 | 145.65 J/K/mol
236.85 K, Crystal 3 | 146.62 J/K/mol
237.5 K, Crystal 3 | 146.68 J/K/mol
237.54 K, Crystal 3 | 146.94 J/K/mol
238.56 K, Crystal 3 | 147.84 J/K/mol
239.36 K, Crystal 3 | 148.9 J/K/mol
239.43 K, Crystal 3 | 148.81 J/K/mol
239.79 K, Crystal 3 | 150.04 J/K/mol
241.18 K, Crystal 3 | 153.75 J/K/mol
241.36 K, Crystal 3 | 153.6 J/K/mol
241.48 K, Crystal 3 | 154.07 J/K/mol
242.99 K, Crystal 2 | 148.41 J/K/mol
243.3 K, Crystal 2 | 148.43 J/K/mol
243.42 K, Crystal 2 | 148.52 J/K/mol
244.82 K, Crystal 2 | 149.34 J/K/mol
245.25 K, Crystal 2 | 149.53 J/K/mol
245.37 K, Crystal 2 | 149.83 J/K/mol
246.66 K, Crystal 2 | 150.69 J/K/mol
247.07 K, Crystal 2 | 151.16 J/K/mol
247.18 K, Crystal 2 | 150.98 J/K/mol
248.48 K, Crystal 2 | 152.19 J/K/mol
248.78 K, Crystal 2 | 152.63 J/K/mol
250.29 K, Crystal 2 | 153.82 J/K/mol
250.48 K, Crystal 2 | 154.01 J/K/mol
252.11 K, Crystal 2 | 155.49 J/K/mol
252.36 K, Crystal 2 | 155.81 J/K/mol
253.91 K, Crystal 2 | 157.22 J/K/mol
254.12 K, Crystal 2 | 157.42 J/K/mol
255.71 K, Crystal 2 | 159 J/K/mol
255.8 K, Crystal 2 | 159.11 J/K/mol
257.47 K, Crystal 2 | 160.79 J/K/mol
257.5 K, Crystal 2 | 160.82 J/K/mol
259.14 K, Crystal 2 | 162.49 J/K/mol
259.28 K, Crystal 2 | 162.64 J/K/mol
260.8 K, Crystal 2 | 164.29 J/K/mol
261.05 K, Crystal 2 | 164.53 J/K/mol
262.46 K, Crystal 2 | 166.09 J/K/mol
262.82 K, Crystal 2 | 166.41 J/K/mol
264.11 K, Crystal 2 | 167.84 J/K/mol
264.58 K, Crystal 2 | 168.33 J/K/mol
265.75 K, Crystal 2 | 169.58 J/K/mol
266.34 K, Crystal 2 | 170.21 J/K/mol
267.39 K, Crystal 2 | 171.43 J/K/mol
268.08 K, Crystal 2 | 172.13 J/K/mol
269.02 K, Crystal 2 | 173.27 J/K/mol
269.82 K, Crystal 2 | 174.08 J/K/mol
270.64 K, Crystal 2 | 175.04 J/K/mol
271.56 K, Crystal 2 | 175.95 J/K/mol
272.26 K, Crystal 2 | 176.79 J/K/mol
273.28 K, Crystal 2 | 177.73 J/K/mol
273.87 K, Crystal 2 | 178.52 J/K/mol
275.02 K, Crystal 2 | 179.53 J/K/mol
275.47 K, Crystal 2 | 180.26 J/K/mol
276.74 K, Crystal 2 | 181.37 J/K/mol
277.08 K, Crystal 2 | 181.92 J/K/mol
278.45 K, Crystal 2 | 183.01 J/K/mol
278.67 K, Crystal 2 | 183.43 J/K/mol
280.15 K, Crystal 2 | 184.62 J/K/mol
280.26 K, Crystal 2 | 185.03 J/K/mol
281.85 K, Crystal 2 | 186.12 J/K/mol and 186.38 J/K/mol
283.43 K, Crystal 2 | 187.69 J/K/mol
283.54 K, Crystal 2 | 187.5 J/K/mol
285.01 K, Crystal 2 | 188.93 J/K/mol
285.24 K, Crystal 2 | 188.79 J/K/mol
286.58 K, Crystal 2 | 189.97 J/K/mol
286.93 K, Crystal 2 | 189.9 J/K/mol
288.15 K, Crystal 2 | 191 J/K/mol
288.61 K, Crystal 2 | 190.97 J/K/mol
289.72 K, Crystal 2 | 191.92 J/K/mol
290.29 K, Crystal 2 | 191.83 J/K/mol
291.28 K, Crystal 2 | 192.69 J/K/mol
291.97 K, Crystal 2 | 192.78 J/K/mol
292.14 K, Crystal 2 | 192.79 J/K/mol
292.85 K, Crystal 2 | 193.59 J/K/mol
293.65 K, Crystal 2 | 193.64 J/K/mol
293.7 K, Crystal 2 | 193.66 J/K/mol
294.41 K, Crystal 2 | 194.19 J/K/mol
295.26 K, Crystal 2 | 194.41 J/K/mol
295.32 K, Crystal 2 | 194.51 J/K/mol
295.97 K, Crystal 2 | 194.99 J/K/mol
296.81 K, Crystal 2 | 195.24 J/K/mol
297 K, Crystal 2 | 195.34 J/K/mol
297.53 K, Crystal 2 | 195.76 J/K/mol
298.36 K, Crystal 2 | 196.04 J/K/mol
298.66 K, Crystal 2 | 196.34 J/K/mol
299.09 K, Crystal 2 | 196.66 J/K/mol
299.91 K, Crystal 2 | 197.34 J/K/mol
300.33 K, Crystal 2 | 197.85 J/K/mol
300.64 K, Crystal 2 | 198.3 J/K/mol
301.45 K, Crystal 2 | 198.75 J/K/mol
301.99 K, Crystal 1 | 196.75 J/K/mol
302.19 K, Crystal 1 | 195.88 J/K/mol
